Earlier results on 26 compounds are cited in US20080275000A1, “COMPOSITIONS FOR REDUCING, AMELIORATING, TREATING, OR PREVENTING CONDITION OF DRY EYE AND METHODS OF MAKING AND USING SAME” (priority 2007, published 2008).

The conditions of data set [1]: buffering agent pH range.
Setting [2] is: Table 1, only or first printed value.

The structures appear in SMILES notation. Like-named read-outs stand apart in the source and are kept apart here.

With `O=C(O)[C@H]1CC[C@H](C(=O)O)C1` (relative stereo) [1,3-trans-cyclopentanedicarboxylic acid], the pKa (as a rule, the pH at which an ionisable group is half protonated) under setting [2] is reported as 4.40 and the pKa (Table 1, second printed value) was 5.45.

As to `O=C(O)CN(CCN(CC(=O)O)CC(=O)O)CCN(CC(=O)O)CC(=O)O` [DTPA, diethylenetriaminepentaacetic acid], the “two pKa values” (bound stated for two pKa values) is “greater than or equal to 6.30”.

Consider `O=C(O)CCCCCCCC(=O)O` [azelaic acid], for which, for the setting “Table 1, second printed value”, the pKa is on record as 5.41.

Consider `CCCCOc1ccc(C(=O)O)cc1` [p-n-butoxybenzoic acid], for which the pKa under setting [2] was 4.53.

As to `COCCN(CC(=O)O)CC(=O)O` [2-methoxyethyliminodiacetic acid], the pKa (first listed value) was 2.2 and the pKa (second listed value) is recorded as 8.96.

Turning to `O=C(O)CN(CCS(=O)(=O)O)CC(=O)O` [N-2-sulfoethyliminodiacetic acid], the pKa is, setting by setting: (first listed value) 1.92; (second listed value) 2.28; (third listed value) 8.16.

Regarding `CC(=O)OO` [peroxyacetic acid], the pKa under setting [2] was 8.2.

With `O=C(O)[C@H]1CCC[C@H](C(=O)O)C1` (relative stereo) [1,3-trans-cyclohexanedicarboxylic acid], the pKa by setting is: under setting [2], 4.18; (Table 1, second printed value) 5.93.

Consider `O=C(O)[C@H]1CC[C@@H](C(=O)O)CC1` [1,4-cis-cyclohexanedicarboxylic acid], for which the pKa by setting is: under setting [2], 4.44; (Table 1, second printed value) 5.79.

Turning to `CCCOc1ccc(C(=O)O)cc1` [p-n-propoxybenzoic acid], under setting [2], the pKa was 4.46.

Consider `CC(CC(=O)O)CC(=O)O` [β-methylglutaric acid], for which the pKa under setting [2] is 4.25 and the pKa (Table 1, second printed value) is reported as 6.22.

For `CCCC(=O)OO` [n-peroxybutyric acid], under setting [2], the pKa is on record as 8.2.

As to `O=C(O)CCCCCC(=O)O` [pimelic acid], the pKa (Table 1, second printed value) was 5.42.

For `O=S(=O)(O)CCCN1CCOCC1` [MOPS, 3-{N-morpholino}propanesulfonic acid], the “pH in the range of” value in data set [1] is reported as 6.5-7.9.

For `O=COO` [peroxyformic acid], the pKa under setting [2] is 7.1.

Regarding `O=S(=O)(O)CCN(CCO)CCO` [BES, N,N-bis{2-hydroxyethyl}2-aminoethanesulfonic acid], the “pH in the range of” value in data set [1] was 6.4-7.8.

For `CSCCN(CC(=O)O)CC(=O)O` [2-methylthioethyliminodiacetic acid], the pKa reads like this: (first listed value) 2.1; (second listed value) 8.91.

For `O=C(O)[C@@H]1CCC[C@H]1C(=O)O` (relative stereo) [1,2-trans-cyclopentanedicarboxylic acid], the pKa is, setting by setting: under setting [2], 3.89; (Table 1, second printed value) 5.91.

As for `O=C(O)CNCC(=O)O` [iminodiacetic acid], the pKa reads like this: (first listed value) 2.98; (second listed value) 9.89.

Regarding `CC(=O)C1C(=O)C=C(C)OC1=O` (centres unmarked) [dehydroacetic acid], under setting [2], the pKa was 5.40.

As for `O=C(O)CC1(CC(=O)O)CCCC1` [1,1-cyclopentanediacetic acid], the pKa runs as follows: under setting [2], 3.82; (Table 1, second printed value) 6.70.

For `O=C(O)c1cccnc1` [nicotinic acid], the pKa by setting is: (first listed value) 10.09; (fourth listed value) 2.86; (second listed value) 9.14; (third listed value) 6.92.

With `CCCCC(=O)O` [valeric acid], under setting [2], the pKa is 4.85.

For `O=S(=O)(O)CCN1CCN(CCO)CC1` [HEPES, N-{2-hydroxyethyl}peperazine-N′-{2-ethanesulfonic acid}], in data set [1], the “pH in the range of” value is 6.8-8.2.

`CC1(C(=O)O)CCC(C(=O)O)C1(C)C` (stereo not drawn) [(+) camphoric acid]: under setting [2], the pKa is on record as 4.72.

Turning to `O=C(O)CCCCCCC(=O)O` [suberic acid], the pKa runs as follows: under setting [2], 4.52; (Table 1, second printed value) 5.4.
